Measured values: ChEMBL document CHEMBL5050834, “Cyclic trex1 inhibitors” (2021)

assay: Inhibition of human TREX1 exonuclease activity using labeled DNA oligonucleotide as substrate incubated for 30 mins and measured after 45 mins by fluorescence assay

| IC50 | SMILES |
| --- | --- |
| < 1000 nM | COC(=O)CC[C@H](C(=O)NCc1ccc(Cl)cn1)N1CCC(CCc2ccccc2)N2C[C@H](N)C[C@H]2C1=O (some centres not stated) |
| < 1000 nM | CC(C)Oc1c(CNC(=O)[C@@H](CCC#N)N2CCC(CCc3ccccc3)N3C[C@H](N)C[C@H]3C2=O)ccc(Cl)c1Cl (some centres not stated) |
| < 1000 nM | CCOC(=O)CC[C@H](C(=O)NCc1ccc(Cl)c(Cl)c1OC)N1CCC(CCc2ccccc2)N2C[C@H](N)C[C@H]2C1=O (some centres not stated) |
| in the range around 1000 nM | CC(C)C[C@H](C(=O)N[C@@H](C)c1ccccc1)N1CCC(CCc2ccccc2)N2C[C@H](N)C[C@H]2C1=O (some centres not stated) |
| < 1000 nM | N[C@@H]1C[C@H]2C(=O)N([C@H]3CCN(Cc4ccc(Cl)c(Cl)c4)C3=O)CCC(CCc3ccccc3)N2C1 (some centres not stated) |
| in the range around 1000 nM | N[C@@H]1C[C@H]2C(=O)N([C@H](CCC(=O)O)C(=O)NCc3ccc(Cl)c(Cl)c3)CCC(CCOc3ccccc3)N2C1 (some centres not stated) |
| < 1000 nM | CC(C)C[C@H](C(=O)N(C)Cc1ccc(Cl)c(Cl)c1)N1CCC(CCc2ccccc2)N2C[C@H](N)C[C@H]2C1=O (some centres not stated) |
| < 1000 nM | N[C@@H]1C[C@H]2C(=O)N([C@H](CCC(=O)O)C(=O)NCc3ccc(Cl)c(Cl)n3)CCC(CCc3ccccc3)N2C1 (some centres not stated) |
| < 1000 nM | CCOC(=O)CC[C@H](C(=O)NCc1ccc(Cl)c(Cl)n1)N1CCC(CCc2ccccc2)N2C[C@H](N)C[C@H]2C1=O (some centres not stated) |
| < 1000 nM | N#CCC[C@H](C(=O)NCc1ccc(Cl)c(Cl)c1)N1CCC(COc2ccc(F)cc2)N2C[C@H](N)C[C@H]2C1=O (some centres not stated) |
| < 1000 nM | NC(=O)CC[C@H](C(=O)NCc1ccc(Cl)c(Cl)c1F)N1CCC(CCc2ccccc2)N2C[C@H](N)C[C@H]2C1=O (some centres not stated) |
| in the range around 1000 nM | N[C@@H]1C[C@H]2C(=O)N([C@H]3CCCN(S(=O)(=O)c4ccc(Cl)c(Cl)c4)C3)CCC(CCc3ccccc3)N2C1 (some centres not stated) |
| < 1000 nM | N#CC[C@H](C(=O)NCc1ccc(Cl)cn1)N1CCC(CCc2ccccc2)N2C[C@H](N)C[C@H]2C1=O (some centres not stated) |
| < 1000 nM | N[C@@H]1C[C@H]2C(=O)N([C@H](CCC(=O)O)C(=O)NCc3cc(Cl)c(Cl)cn3)CCC(CCc3ccccc3)N2C1 (some centres not stated) |
| < 1000 nM | N[C@@H]1C[C@H]2C(=O)N([C@H](CCC(=O)O)C(=O)NCc3ccc(Cl)c(Cl)c3)CCC(COc3ccc(F)cc3)N2C1 (some centres not stated) |
| < 1000 nM | CCOC(=O)CC[C@H](C(=O)N1CCCC[C@H]1c1ccc(Cl)c(Cl)c1)N1CCC(CCc2ccccc2)N2C[C@H](N)C[C@H]2C1=O (some centres not stated) |
| < 1000 nM | N[C@@H]1C[C@H]2C(=O)N([C@H](CCC(=O)O)C(=O)NCc3ccc(Cl)c(Cl)c3)CCC(COc3cccc(Cl)c3)N2C1 (some centres not stated) |
| < 1000 nM | N[C@@H]1C[C@H]2C(=O)N([C@H](CS(=O)(=O)c3ccccc3O)C(=O)NCc3ccc(Cl)c(Cl)c3)CCC(CCc3ccccc3)N2C1 (some centres not stated) |
| < 1000 nM | CC(C)Oc1c(CNC(=O)[C@@H](CCC(=O)O)N2CCC(CCc3ccccc3)N3C[C@H](N)C[C@H]3C2=O)ccc(Cl)c1Cl (some centres not stated) |
| < 1000 nM | CNC(=O)CC[C@H](C(=O)NCc1ccc(Cl)c(Cl)c1)N1CCC(CCc2ccccc2)N2C[C@H](N)C[C@H]2C1=O (some centres not stated) |
| in the range around 10000 nM | NC(=O)CC[C@H](C(=O)N1Cc2cc(Cl)c(Cl)cc2C1)N1CCC(CCc2ccccc2)N2C[C@H](N)C[C@H]2C1=O (some centres not stated) |
| < 1000 nM | CCOC(=O)CC[C@H](C(=O)NCc1cc(Cl)c(Cl)cn1)N1CCC(CCc2ccccc2)N2C[C@H](N)C[C@H]2C1=O (some centres not stated) |
| in the range around 1000 nM | Cc1ccc(OCC2CCN([C@H](CCC(=O)O)C(=O)NCc3ccc(Cl)c(Cl)c3)C(=O)[C@@H]3C[C@@H](N)CN23)cc1 (some centres not stated) |

| IC50 | SMILES |
| --- | --- |
| < 1000 nM | N[C@@H]1C[C@H]2C(=O)N([C@H](CCC(=O)NO)C(=O)NCc3ccc(Cl)c(Cl)c3)CCC(CCc3ccccc3)N2C1 (some centres not stated) |
| < 1000 nM | CCOC(=O)CC[C@H](C(=O)NCc1ccc(Cl)c(Cl)c1F)N1CCC(CCc2ccccc2)N2C[C@H](N)C[C@H]2C1=O (some centres not stated) |
| < 1000 nM | CC(C)C[C@H](C(=O)NCc1ccc(Cl)c(C(F)(F)F)c1)N1CCC(CCc2ccccc2)N2C[C@H](N)C[C@H]2C1=O (some centres not stated) |
| in the range around 1000 nM | N[C@@H]1C[C@H]2C(=O)N([C@H](CCC(=O)O)C(=O)NCc3ccc(Cl)c(Cl)c3)CCC(COc3cnccn3)N2C1 (some centres not stated) |
| < 1000 nM | N[C@@H]1C[C@H]2C(=O)N([C@H](CCC(=O)O)C(=O)NCc3ccc(Cl)cn3)CCC(CCc3ccccc3)N2C1 (some centres not stated) |
| < 1000 nM | CC(C)C[C@H](C(=O)NCc1ccc(Cl)c(F)c1)N1CCC(CCc2ccccc2)N2C[C@H](N)C[C@H]2C1=O (some centres not stated) |
| in the range around 10000 nM | N[C@@H]1C[C@H]2C(=O)N([C@@H]3CCCN(C(=O)c4ccc(Cl)c(Cl)c4)C3)CCC(CCc3ccccc3)N2C1 (some centres not stated) |
| < 1000 nM | NC(=O)C[C@H](C(=O)NCc1ccc(Cl)c(Cl)n1)N1CCC(CCc2ccccc2)N2C[C@H](N)C[C@H]2C1=O (some centres not stated) |
| < 1000 nM | N[C@@H]1C[C@H]2C(=O)N(c3cccn(Cc4ccc(Cl)c(Cl)c4)c3=O)CCC(CCc3ccccc3)N2C1 (some centres not stated) |
| in the range around 1000 nM | CC(C)C[C@H](C(=O)NCc1ccc(Cl)c(Cl)c1)N1CCC(CS(=O)(=O)c2ccccc2)N2C[C@H](N)C[C@H]2C1=O (some centres not stated) |
| < 1000 nM | CONC(=O)CC[C@H](C(=O)NCc1ccc(Cl)c(Cl)c1)N1CCC(CCc2ccccc2)N2C[C@H](N)C[C@H]2C1=O (some centres not stated) |
| in the range around 1000 nM | N#CC[C@H](C(=O)N1CCc2cc(Cl)c(Cl)cc2C1)N1CCC(CCc2ccccc2)N2C[C@H](N)C[C@H]2C1=O (some centres not stated) |
| < 1000 nM | Cc1ccc(CNC(=O)[C@@H](CC(C)C)N2CCC(CCc3ccccc3)N3C[C@H](N)C[C@H]3C2=O)cc1Cl (some centres not stated) |
| in the range around 10000 nM | N#CC[C@H](C(=O)N1CCOC[C@@H]1c1ccccc1)N1CCC(CCc2ccccc2)N2C[C@H](N)C[C@H]2C1=O (some centres not stated) |
| < 1000 nM | N#CC[C@H](C(=O)NCc1ccc(Cl)c(C(F)(F)F)c1)N1CCC(CCc2ccccc2)N2C[C@H](N)C[C@H]2C1=O (some centres not stated) |
| < 1000 nM | N[C@@H]1C[C@H]2C(=O)N([C@H](CCNS(=O)(=O)C(F)(F)F)C(=O)NCc3ccc(Cl)c(Cl)c3)CCC(CCc3ccccc3)N2C1 (some centres not stated) |
| < 1000 nM | CC(C)C[C@H](CNS(=O)(=O)c1ccc(Cl)c(Cl)c1)N1CCC(CCc2ccccc2)N2C[C@H](N)C[C@H]2C1=O (some centres not stated) |
| < 1000 nM | COc1cc(Cl)c(Cl)cc1CNC(=O)[C@@H](CCC(=O)O)N1CCC(CCc2ccccc2)N2C[C@H](N)C[C@H]2C1=O (some centres not stated) |
| < 1000 nM | N[C@@H]1C[C@H]2C(=O)N([C@H](CCC(=O)NO)C(=O)NCc3ccc(Cl)c(Cl)c3)CCC(COc3cccc(F)c3)N2C1 (some centres not stated) |
| < 1000 nM | CN(Cc1ccc(Cl)c(Cl)c1)C(=O)[C@@H](CC#N)N1CCC(CCc2ccccc2)N2C[C@H](N)C[C@H]2C1=O (some centres not stated) |
| < 1000 nM | N#CC[C@H](C(=O)NCc1ccc(Cl)c(Cl)c1)N1CCC(CCc2ccccc2)N2C[C@H](N)C[C@H]2C1=O (some centres not stated) |
| < 1000 nM | N#CCC[C@H](C(=O)NCc1ccc(Cl)c(Cl)c1)N1CCC(COc2cccc(F)c2)N2C[C@H](N)C[C@H]2C1=O (some centres not stated) |
| < 1000 nM | N[C@@H]1C[C@H]2C(=O)N([C@H](CCC(=O)O)C(=O)NCc3ccc(Cl)c(Cl)c3)CCC(COc3ccc(Cl)cc3)N2C1 (some centres not stated) |

| SMILES | IC50 |
| --- | --- |
| CC(C)C[C@H](C(=O)NCc1ccc(Cl)c(Cl)c1)N1CCC(C[S+]([O-])c2ccccc2)N2C[C@H](N)C[C@H]2C1=O (some centres not stated) | < 1000 nM |
